Tests used:
[1] = test system: U87 cells; test: Agarose colony formation assay, U87 cells; assay type: cell-based, human; details: 10 μM, 2 weeks
Experimental: Agarose colony formation assay. Agarose colony formation assay was conducted as described (Horman, S. R. et al., J. Biomol. Screen 18(10):1298-308, 2013; Zhang, K. et al., Tumour Biol. 35(3):2537-48, 2014) using 6-well plates and 5,000 cells in each well. 10 μM NC9 or DMSO was added to every layer at the start of the experiments. 2 mL liquid MEM containing 10 μM NC9 or DMSO was used to cover the agarose and it was changed 3 times a week. Colony growth was monitored every day and at the end of 10-15 days, the colonies were fixed with 4% paraformaldehyde, stained with 0.005% crystal violet, washed with PBS twice and 40 random pictures were taken from each treatment group. A person blinded for the treatments measured the area of the colonies using ImageJ program and the volumes were calculated from the area data under the assumption that the colonies are perfect spheres. The volumes were used to compare the effect of NC9 on colony growth.

[2] = test system: TS543 neurospheres; test: Neurosphere growth, TS543 (mesenchymal); assay type: cell-based, human; details: 25 μM, 2 weeks
Excerpt: Neurosphere cultures. TS543, TS565 and TS676, which represent the mesenchymal, proneural and classical glioblastoma subtypes respectively, based on transcriptomic and genomic analysis, were obtained from C. Brennan through the Monoclonal Antibody Core Facility at Memorial Sloan Kettering Cancer Center (Brennan, C. et al., PLoS One 4(11):e7752, 2009; Pyonteck, S. M. et al., Nature Med. 19(10):1264-72, 2013; Rohle, D. et al., Science 340(6132):626-30, 2013) and maintained in NeuroCult™ NS-A Proliferation Kit (Human) (Stem Cell Technologies) according to manufacturer's instructions. (NeuroCult Medium was supplemented with 20 ng/mL FGF, 50 ng/mL EGF and 0.0002% Heparin). To prevent neurosphere attachment to the bottom of the cell culture plates, Poly 2-hydroxyethyl methacrylate (PHM) was used. 6-well plates were coated with 1 mL/well of 1% PHM in ethanol (w/v). The plates were air dried in a sterile environment overnight and washed once with PBS and they were kept in the fridge in a sterile environment until use. For passaging, neurospheres were triturated according to instructions and 5,000 cells were seeded in each well in 2 mL medium. For treatments with TG2 inhibitors, cells were inoculated in medium containing 25 μM TG2 inhibitor or DMSO control. 200 μL of medium containing the 25 μM TG2 inhibitor or DMSO was added every other day. At the end of 2 weeks, 20-50 random microscopic images were captured for each group. The average volume of each sphere image was determined using Image J by a person blinded for neurosphere lines and treatments and volumes were calculated from the area data and used for comparison.

[3] = target: T1, TG2 (Homo sapiens, UniProt P21980); test: Colorimetric transamidase activity assay (AL5 substrate), hTG2; assay type: biochemical
T1 sequence (P21980 1-687): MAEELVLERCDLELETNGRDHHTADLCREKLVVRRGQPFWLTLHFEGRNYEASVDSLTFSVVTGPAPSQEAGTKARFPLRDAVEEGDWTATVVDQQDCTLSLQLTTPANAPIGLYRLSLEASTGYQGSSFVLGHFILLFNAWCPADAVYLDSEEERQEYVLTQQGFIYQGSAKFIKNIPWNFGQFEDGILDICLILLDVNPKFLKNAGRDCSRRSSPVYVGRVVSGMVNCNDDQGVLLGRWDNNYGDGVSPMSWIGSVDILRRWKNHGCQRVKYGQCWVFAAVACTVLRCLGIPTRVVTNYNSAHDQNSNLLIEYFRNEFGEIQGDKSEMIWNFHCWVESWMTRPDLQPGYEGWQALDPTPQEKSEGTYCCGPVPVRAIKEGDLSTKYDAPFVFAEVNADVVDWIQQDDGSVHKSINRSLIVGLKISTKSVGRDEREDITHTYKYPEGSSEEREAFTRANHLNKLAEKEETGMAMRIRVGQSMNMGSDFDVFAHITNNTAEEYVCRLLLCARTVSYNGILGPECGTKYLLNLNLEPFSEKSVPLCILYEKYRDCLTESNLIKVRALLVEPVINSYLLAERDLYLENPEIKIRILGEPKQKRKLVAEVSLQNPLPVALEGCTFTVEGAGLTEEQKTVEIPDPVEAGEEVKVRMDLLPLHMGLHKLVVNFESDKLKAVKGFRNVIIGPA
Experimental: In Vitro Assays. Colorimetric transamidase activity assay. The activities of hTG1, hTG2 and hTG6 were measured via a colorimetric assay using the chromogenic substrate Cbz-Glu(γ-p-nitrophenyl ester)Gly (AL5). The assay was conducted at 25° C. in 100 mM MOPS buffer (pH 6.5) containing 3.0 mM CaCl2 and 50 μM EDTA. […] A stock solution of AL5 was prepared in DMSO such that the final concentration of this co-solvent was constant at 2.5% v/v. Stock solutions of the inhibitors were made in the buffer system previously described. The reaction was initiated with the addition of 40-60 mU/mL of the respective enzyme (0.10 μM hTG1, 0.25 μM hTG2 or 0.32 μM hTG6). Product formation was monitored at 405 nm in a polystyrene 96-well microplate using a BioTek Synergy 4 plate reader. […] Observed first-order rate constants of inactivation (kobs) were determined from non-linear regression fit to a mono-exponential model (Equation 1) of the observed absorbance of the enzymatic hydrolysis product, p-nitrophenolate (pNP). […] Experiments were done in triplicate and variation between repeats was less than 30%.

[4] = test system: SCC-13 cells; test: Matrigel invasion assay, SCC-13 cells; assay type: cell-based, human
Experimental: Invasion assay. Matrigel was diluted in 0.01 M Tris-HCl/0.7% NaCl, filter sterilized and 0.1 ml was used to coat individual BD BioCoat inserts (Millicell-PCF, 0.4 μm, 12 mm, PIHP01250). Cells (25,000) were plated in 100 μl in growth medium, supplemented with 1% FCS, in the upper chamber. The lower chamber contained growth medium supplemented with 10% FCS. After migration, the membranes were harvested and excess cells were removed from the upper membrane surface. The membrane was fixed in 4% paraformaldehyde, stained with 1 μg/m DAPI, and the underside of the membrane was photographed with an inverted fluorescent microscope and the number of cells counted.
Invasion assay. Matrigel (BD Biolabs) was diluted into 2 mL of 0.01 M Tris-HC/0.7% NaCl to a final concentration of 300 μg/mL, filter sterilized and 0.1 mL was added per BD BioCoat cell insert. After 2 hours, near-confluent SCC13-TG2-shRNA2 and SCC13-Control-shRNA cells were harvested and 25,000 cells were plated in 100 μL of growth media containing 1% FCS atop the Matrigel layer. Growth medium containing 10% FCS was added to the bottom chamber followed by an overnight incubation at 37° C. The following day a cotton swab was used to remove cells from the upper side of the membrane, the membrane was rinsed with phosphate-buffered saline, fixed with 4% paraformaldehyde for 10 min, washed again, and stained with 1 μg/mL DAPI for 10 min. The underside of the membrane was viewed with an inverted fluorescent microscope and nuclei were counted.
Invasion assay. Matrigel (BD Biolabs) was diluted into 2 ml of 0.01 M Tris-HC/0.7% NaCl to a final concentration of 300 μg/ml, filter sterilized, and 0.1 ml was added per BD BioCoat cell insert (8 microns pore size, surface area 0.3 cm2). After 2 h, near-confluent SCC-13 cells were harvested and 25,000 cells were plated in 100 μl of growth media containing 1% FCS atop the Matrigel layer. Growth medium containing 10% FCS was added to the bottom chamber followed by an overnight incubation at 37° C. The following day a cotton swab was used to remove cells from the upper side of the membrane, the membrane was rinsed with PBS, fixed with 4% paraformaldehyde, washed again, and stained with 1 μg/ml DAPI for 10 min. The underside of the membrane was viewed with an inverted fluorescent microscope, and nuclei were counted (Adhikary, G. et al., PLoS One 8:e84324, 2013).

C=CC(=O)NCCCC[C@H](NC(=O)OCc1ccccc1)C(=O)N1CCN(C(=O)c2cc3ccc(O)cc3oc2=O)CC1 [VA5, (S)-Benzyl(6-acrylamido-1-(4-(7-hydroxy-2-oxo-2H-chromene-3-carbonyl)piperazin-1-yl)-1-oxohexan-2-yl)carbamate] was tested, and the “colony growth, U87” value [1] was “promoted it”, the “sphere growth, TS543” value [2] was “promoted growth” and the kinact ([3]; Table 8, read-out: kinact (converted)) was 0.0115 s⁻¹. For the same compound, the kinact/KI ([3]; read-out: kinact/KI (10^3M^−1 min^−1), Table 8) was 1040 M⁻¹ s⁻¹ and the matrigel invasion ([4]; 20 μM, 24 h) was “inhibited”.
With C=CC(=O)NCCCC[C@H](NC(=O)OCc1ccccc1)C(=O)NCCOCCOCCNS(=O)(=O)c1cccc2c(N(C)C)cccc12 [NC9] the “colony growth, U87” value [1] was “significantly reduced the growth”, the “sphere growth, TS543” value [2] was “suppressed sphere growth” and the “kobs (10^−3 min^−1), TG2” value ([3]; Table 9, Kitz and Wilson conditions, inhibitor concentration adjusted for competition with substrate) was 390 ± 49 10^−3 min^−1. For the same compound, the matrigel invasion ([4]; 20 μM pretreatment 1 hour, 24 hours) was “reduced matrigel invasion”, the invasion ([4]; 20 μM pretreatment 2 h, 30 h) was “reduced” and the matrigel invasion ([4]; 20 μM, 24 h) was “inhibited”.
With C=CC(=O)NCCCC[C@H](NC(=O)OCc1ccccc1)C(=O)N1CCN(S(=O)(=O)c2cccc3c(N(C)C)cccc23)CC1 [VA4, (S)-benzyl(6-acrylamido-1-(4-((5-(dimethylamino)naphthalen-1-yl)sulfonyl)piperazin-1-yl)-1-oxohexan-2-yl)carbamate] the “colony growth, U87” value [1] was “inhibited colony growth”, the “sphere growth, TS543” value [2] was “suppressed sphere growth” and the “reduction in the inhibition binding constant” value ([3]; compared to NC9) was “greater than two-fold reduction”. For the same compound, the matrigel invasion ([4]; 20 μM, 24 h) was “inhibited”.

From patent publication US10894777B2, “TG2 inhibitor piperazine compounds and uses thereof” (UNIVERSITY OF OTTAWA, priority 2016, dated 2021)
